# In publication PMC12153356, “An antisense oligomer conjugate with unpredicted bactericidal activity against Fusobacterium nucleatum” (mBio, 2025):
# Square brackets hold non-standard residues; d marks the D form. Peptide text beside a SMILES is read from it. Ahx = NCCCCCC(=O)O; βAla = NCCC(=O)O
# Tests used:
# [1] = system: F. nucleatum subsp. nucleatum ATCC 23726 (FNN23); experiment: Determination of bactericidal effect by CFU spot assay; assay type: cell-based, Fusobacterium nucleatum subsp. nucleatum ATCC 23726; conditions: 10 µM, 1 × 10^5 CFU/mL in MHB, spotting on BHI agar plates, up to 96 h, three replicates
# Method: To investigate the bactericidal effects of PNAs an o.n. culture of FNN23 grown in ColB was diluted 1:50 in fresh ColB and grown to OD600 0.5. This culture was then diluted 1:2,500 to 1 × 10^5 CFU/mL in MHB, and 190 µL of the culture was dispensed into a transparent 96-well plate (Nunc, Thermo Fischer Scientific) together with 10 µL of respective 20× PNA stock or water and incubated at 37°C with 237 cpm shaking every 20 min. At the respective time points, 100 µL was taken out of the well, a 1:10 serial dilution series was prepared with 900 µL anoxic 1× PBS, and 5 µL of each dilution was spotted on BHI plates for CFU determination. Plates were incubated for 3 days at 37°C before taking out the plates of the anaerobic chamber for CFU counting.
# [2] = system: HeLa cells; conditions: cited from earlier work
# [3] = system: F. nucleatum subsp. nucleatum ATCC 23726 (FNN23); experiment: MIC determination and growth inhibition assay (broth microdilution, OD600 over time); assay type: cell-based, Fusobacterium nucleatum subsp. nucleatum ATCC 23726; conditions: MHB; for Growth inhibition of FNN23: 10 µM compound, 1 × 10^5 CFU/mL, growth inhibition = no visible growth (OD600 <0.01) after 120 h
# Method: To test CPP-PNA conjugates for growth inhibition, we diluted mid-exponential phase cultures of FNN23 to 1 × 10^5 colony forming units (CFUs) per milliliter in Mueller-Hinton Broth (MHB) and incubated the diluted bacteria with 10 µM of either (KFF)3K- or (RXR)4XB- conjugated PNAs targeting acpP, ftsZ or gyrA. Growth was monitored over time by OD600 measurements, with growth inhibition defined as no visible growth (OD600 <0.01) after 120 h. […] Based on these findings, we conclude that CPP-PNAs targeting fusobacterial mRNAs are not effective in antisense inhibition.
# (§1) The following fusobacterial strains were used in this study: Fusobacterium nucleatum subsp. nucleatum ATCC 23726 (FNN23) acquired from the American Type Culture Collection (ATCC), F. nucleatum subsp. nucleatum ATCC 25586 (FNN25), F. nucleatum subsp. vincentii ATCC 49256 (FNV), and F. nucleatum subsp. polymorphum ATCC 10953 (FNP) acquired from the German Collection of Microorganisms and Cell Culture (DSMZ), F. nucleatum subsp. animalis 7_1 (FNA) and F. periodonticum 2_1_31 (FPE) both received as a kind gift from E. Allen-Vercoe (University of Guelph, Canada). All strains were routinely grown at 37°C in 80:10:10 (N2:H2:CO2) anaerobic conditions on 2% agar supplemented BHI plates (BHI, 1% [wt:vol] dried yeast extract, 1% [vol:vol] 50% sterile-filtered glucose solution, 5 µg/mL of hemin; 1% [vol:vol] fetal bovine serum) from frozen 20% glycerol stocks kept at −80°C. For liquid growth, the strains were cultured in Columbia broth (ColB; BD Difco). Precultures were prepared 24 h before inoculating the working culture at a 1:50 dilution in fresh ColB until OD600 0.5 was reached. Cultures were then diluted in non-cation adjusted Mueller-Hinton Broth (MHB, BD Difco) to the desired CFU/mL number. P. gingivalis (DSM 20709) was purchased from DSMZ and grown at 37°C in anaerobic conditions as mentioned above on 2% agar supplemented BHI+ plates (BHI, 1% [wt:vol] dried yeast extract, 1% [vol:vol] 50% sterile filtered glucose solution, 5 µg/ml of hemin; 10% [vol:vol] fetal bovine serum; and 1 µg/mL vitamin K3) for 4 days. For liquid growth, P. gingivalis was cultured in BHI+ medium (BHI, BD Difco supplemented with 1% [vol:vol] 50% sterile-filtered glucose solution, 5 µg/mL of hemin; 1% [vol:vol] fetal bovine serum, and 1 µg/mL vitamin K3). Precultures were prepared 24 h before inoculating the working culture at a 1:20 dilution in BHI+ until OD600 of 0.5 was reached. All plates, media, buffers, and reagents were brought into the anaerobic chamber the day before usage to ensure full oxygen depletion.
# To determine the MIC value, broth microdilutions were performed according to the standard protocol with some modifications ([119]). An overnight bacterial culture was diluted in a fresh ColB medium and grown to OD600 0.5 (mid-exponential phase). […] To determine the growth inhibition of P. gingivalis, an o.n. culture grown in BHI+ was diluted 1:1,500 in MHB to obtain 1 × 10^5 CFU/mL. E. coli K12, E. coli Nissle 1917, and S. enterica o.n. cultures grown in MHB were diluted 1:1,800 in fresh MHB to obtain 1 × 10^5 CFU/mL. In total, 190 µL of diluted bacterial cultures were pipetted into a transparent 96-well plate (Nunc, Thermo Fischer Scientific) together with 10 µL of respective 20× CPP or CPP-PNA stock or water as control. Bacterial growth was monitored by measuring OD600 every 20 min with constant shaking in a plate reader (Biotek) under the normal atmospheric environment or positioned in the anaerobic chamber with double orbital shaking every 20 min prior to each measurement with 237 cpm at 37°C for 120 h.
# [4] = system: F. nucleatum subsp. polymorphum ATCC 10953 (FNP); experiment: Growth inhibition assay; assay type: cell-based, Fusobacterium nucleatum subsp. polymorphum ATCC 10953; conditions: 10 µM, MHB, 1 × 10^5 CFU/mL input, three replicates; listed as sequence variant 1
# Text: as §1, with “For liquid growth, P. gingivalis was cultured in BHI+ medium (BHI, BD Difco supplemented with 1% [vol:vol] 50% sterile-filtered glucose solution, 5 µg/mL of hemin; 1% [vol:vol] fetal bovine serum, and 1 µg/mL vitamin K3). Precultures were prepared 24 h before inoculating the working culture at a 1:20 dilution in BHI+ until OD600 of 0.5 was reached. All plates, media, buffers, and reagents were brought into the anaerobic chamber the day before usage to ensure full oxygen depletion.” left out
# (§2) To determine the MIC value, broth microdilutions were performed according to the standard protocol with some modifications ([119]). […] Bacterial growth was monitored by measuring OD600 every 20 min with constant shaking in a plate reader (Biotek) under the normal atmospheric environment or positioned in the anaerobic chamber with double orbital shaking every 20 min prior to each measurement with 237 cpm at 37°C for 120 h.
# [5] = system: F. nucleatum subsp. nucleatum ATCC 25586 (FNN25); experiment: Growth inhibition assay; assay type: cell-based, Fusobacterium nucleatum subsp. nucleatum ATCC 25586; conditions: 10 µM, MHB, 1 × 10^5 CFU/mL input, three replicates; listed as sequence variant 1
# Text: as §1, with “For liquid growth, P. gingivalis was cultured in BHI+ medium (BHI, BD Difco supplemented with 1% [vol:vol] 50% sterile-filtered glucose solution, 5 µg/mL of hemin; 1% [vol:vol] fetal bovine serum, and 1 µg/mL vitamin K3). Precultures were prepared 24 h before inoculating the working culture at a 1:20 dilution in BHI+ until OD600 of 0.5 was reached. All plates, media, buffers, and reagents were brought into the anaerobic chamber the day before usage to ensure full oxygen depletion.” left out
# as §2
# [6] = system: F. nucleatum subsp. animalis 7_1 (FNA); experiment: Growth inhibition assay; assay type: cell-based, Fusobacterium nucleatum subsp. animalis 7_1; conditions: 10 µM, MHB, 1 × 10^5 CFU/mL input, three replicates; listed as sequence variant 1
# Text: as §1, with “For liquid growth, P. gingivalis was cultured in BHI+ medium (BHI, BD Difco supplemented with 1% [vol:vol] 50% sterile-filtered glucose solution, 5 µg/mL of hemin; 1% [vol:vol] fetal bovine serum, and 1 µg/mL vitamin K3). Precultures were prepared 24 h before inoculating the working culture at a 1:20 dilution in BHI+ until OD600 of 0.5 was reached. All plates, media, buffers, and reagents were brought into the anaerobic chamber the day before usage to ensure full oxygen depletion.” left out
# as §2
# [7] = system: F. periodonticum 2_1_31 (FPE); experiment: Growth inhibition assay; assay type: cell-based, Fusobacterium periodonticum 2_1_31; conditions: 10 µM, MHB, 1 × 10^5 CFU/mL input, three replicates; listed as sequence variant 1
# Text: as §1, with “For liquid growth, P. gingivalis was cultured in BHI+ medium (BHI, BD Difco supplemented with 1% [vol:vol] 50% sterile-filtered glucose solution, 5 µg/mL of hemin; 1% [vol:vol] fetal bovine serum, and 1 µg/mL vitamin K3). Precultures were prepared 24 h before inoculating the working culture at a 1:20 dilution in BHI+ until OD600 of 0.5 was reached. All plates, media, buffers, and reagents were brought into the anaerobic chamber the day before usage to ensure full oxygen depletion.” left out
# as §2
compound,measurement,setting,value
"N=C(N)NCCC[C@H](NC(=O)CCCCCNC(=O)[C@H](CCCNC(=N)N)NC(=O)[C@H](CCCNC(=N)N)NC(=O)CCCCCNC(=O)[C@H](CCCNC(=N)N)NC(=O)[C@H](CCCNC(=N)N)NC(=O)CCCCCNC(=O)[C@H](CCCNC(=N)N)NC(=O)[C@H](CCCNC(=N)N)NC(=O)CCCCCNC(=O)[C@@H](N)CCCNC(=N)N)C(=O)NCCCCCC(=O)NCCC(=O)O [(RXR)4XB, reference compound] (H-R[Ahx]RR[Ahx]RR[Ahx]RR[Ahx]R[Ahx][βAla]-OH; N-terminus and C-terminus assumed)","Bactericidal effect (viable cells, CFU) on FNN23",[1],no bactericidal effect
CC[C@H](C)[C@H](NC(=O)[C@H](CCCNC(=N)N)NC(=O)[C@H](CCCNC(=N)N)NC(=O)[C@H](CC(C)C)NC(=O)[C@H](Cc1c[nH]c2ccccc12)NC(=O)[C@H](C)NC(=O)[C@H](CCCCN)NC(=O)[C@@H](NC(=O)[C@H](CCCNC(=N)N)NC(=O)[C@H](CCCNC(=N)N)NC(=O)[C@H](CC(C)C)NC(=O)[C@@H](N)Cc1c[nH]c2ccccc12)[C@@H](C)CC)C(=O)N[C@@H](CCCCN)C(=O)N[C@@H](C)C(=O)N[C@@H](CC(C)C)C(=O)N[C@@H](CC(N)=O)C(=O)N[C@@H](CCCNC(=N)N)C(=O)N[C@@H](CCC(N)=O)C(=O)N[C@@H](CC(C)C)C(=O)NCC(=O)N[C@H](C(=O)N[C@@H](C)C(=O)N[C@@H](C)C(=O)O)C(C)C [Seq471],Cytotoxicity in HeLa cells,[2],without notable cytotoxicity
"GACATAATTGT [PNA79, FUS79 without the (RXR)4XB module, PNA …]",Growth inhibition of FNN23,[3],only the original FUS79 as well as sequence variant 1 conjugated to full-length (RXR)4XB inhibited the growth
"KFFKFFKFFK (GACATAATTGT; all phosphorodiamidate morpholino (PMO); (KFF)3K peptide conjugated via azide-cyclooctyne click, attachment end not given here) [(KFF)3K-PMO79, (KFF)3K conjugated to 11mer PMO …]",Growth inhibition of FNN23,[3],did not inhibit the growth
"KFFKFFKFFK [(KFF)3K-gyrA_11mer_2, (KFF)3K conjugated to 11mer PNA … targeting gyrA]",Growth delay of FNN23,"[3]; 10 µM (KFF)3K-PNA, 1 × 10^5 CFU/mL (Fig. 2C)",~ 40 h
same,Growth retardation of FNN23 at higher concentrations,"[3]; concentrations higher than 10 µM, 1 x 10^5 CFU per ml (Fig. S1C)",did not lead to further growth retardation
Polymyxin B [reference compound],"Bactericidal effect (viable cells, CFU) on FNN23",[1],fully diminished CFUs after 96 h
"RXRRXRRXRRXRXB [(RXR)4XB-ftsZ, (RXR)4XB conjugated to 10mer PNA … targeting ftsZ]","Bactericidal effect (viable cells, CFU) on FNN23",[1]; listed as (RXR)4XB-PNA targeting ftsZ,could not observe a CFU reduction
"RXRRXRRXRRXRXB [(RXR)4XB-non-targeting-PMO, (RXR)4XB conjugated to non-targeting 11mer PMO …]",Growth inhibition of FNN23,[3]; listed as (RXR)4XB-conjugated non-targeting PMO control,did not inhibit the growth
"RXRRXRRXRRXRXB [(RXR)4XB-trpB, (RXR)4XB conjugated to 11mer PNA … complementary to trpB TIR]",Growth inhibition of FNN23,[3],did not result in growth impairment
RXRRXRRXRRXRXB [FUS79 variant 1],Growth inhibition of FNP,[4],effective in strains susceptible to FUS79
same,Growth inhibition of FNN23,[3]; listed as sequence variant 1,inhibited the growth
same,Growth inhibition of FNN25,[5],effective in strains susceptible to FUS79
same,Growth inhibition of FNA,[6],effective in strains susceptible to FUS79
same,Growth inhibition of FPE,[7],effective in strains susceptible to FUS79
"RXRRXRRXRXB [(RXR)3XB-PNA79, PNA … with shortened CPP module RXRRXRRXRXB]",Growth inhibition of FNN23,[3],only the original FUS79 as well as sequence variant 1 conjugated to full-length (RXR)4XB inhibited the growth
